Common to all, as to test: selectivity profiling in a panel of 340 wild-type kinases (Reaction Biology Europe)
Holding throughout (format): binding

In assay [1] the target is T1, 340 wild-type kinases (Homo sapiens, UniProt Q8TDC3).
T1 construct: purchased Reaction Biology Europe
T1 sequence (Q8TDC3 1-778): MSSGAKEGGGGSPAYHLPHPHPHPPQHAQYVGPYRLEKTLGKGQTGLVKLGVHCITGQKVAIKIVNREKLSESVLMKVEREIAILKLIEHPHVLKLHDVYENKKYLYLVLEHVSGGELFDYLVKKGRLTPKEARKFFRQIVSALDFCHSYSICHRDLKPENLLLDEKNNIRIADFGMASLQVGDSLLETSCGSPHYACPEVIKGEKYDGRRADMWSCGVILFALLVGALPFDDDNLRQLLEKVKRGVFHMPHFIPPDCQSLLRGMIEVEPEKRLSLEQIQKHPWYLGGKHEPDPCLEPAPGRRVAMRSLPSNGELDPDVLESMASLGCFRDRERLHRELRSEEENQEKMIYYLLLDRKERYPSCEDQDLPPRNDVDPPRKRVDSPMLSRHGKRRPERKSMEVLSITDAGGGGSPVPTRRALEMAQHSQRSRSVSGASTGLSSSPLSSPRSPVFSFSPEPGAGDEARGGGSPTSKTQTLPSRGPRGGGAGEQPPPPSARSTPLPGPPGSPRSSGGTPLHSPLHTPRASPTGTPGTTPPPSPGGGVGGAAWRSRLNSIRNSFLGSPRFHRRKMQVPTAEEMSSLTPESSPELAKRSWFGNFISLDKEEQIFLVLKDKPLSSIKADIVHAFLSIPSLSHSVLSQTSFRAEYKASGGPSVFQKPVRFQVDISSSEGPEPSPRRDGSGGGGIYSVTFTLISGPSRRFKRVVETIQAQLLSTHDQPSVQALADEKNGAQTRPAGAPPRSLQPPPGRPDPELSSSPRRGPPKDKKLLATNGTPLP

Assay [2] addresses T2, 340 wild-type kinases (Homo sapiens, UniProt Q13233).
T2 construct: purchased Reaction Biology Europe

Assay [3] deals with T3, 340 wild-type kinases (Homo sapiens, UniProt Q99558).
T3 construct: purchased Reaction Biology Europe

Assay [4] concerns the target T4, 340 wild-type kinases (Homo sapiens, UniProt P42679).
T4 construct: purchased Reaction Biology Europe
T4 sequence (P42679 1-507): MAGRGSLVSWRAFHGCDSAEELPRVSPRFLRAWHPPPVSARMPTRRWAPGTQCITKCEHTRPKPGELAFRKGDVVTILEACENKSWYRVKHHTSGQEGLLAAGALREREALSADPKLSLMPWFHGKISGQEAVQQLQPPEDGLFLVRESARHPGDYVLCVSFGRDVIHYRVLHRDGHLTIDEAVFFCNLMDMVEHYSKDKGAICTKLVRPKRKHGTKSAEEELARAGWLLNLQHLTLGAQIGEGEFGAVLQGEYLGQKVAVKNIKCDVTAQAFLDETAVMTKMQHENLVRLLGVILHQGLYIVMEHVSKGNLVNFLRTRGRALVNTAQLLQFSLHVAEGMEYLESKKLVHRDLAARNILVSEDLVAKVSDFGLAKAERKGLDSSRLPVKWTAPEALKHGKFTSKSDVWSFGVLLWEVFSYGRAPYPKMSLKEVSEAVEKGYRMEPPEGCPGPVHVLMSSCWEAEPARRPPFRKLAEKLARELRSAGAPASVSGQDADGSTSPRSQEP

For assay [5], the target named is T5, 340 wild-type kinases (Homo sapiens, UniProt Q96PF2).
T5 construct: purchased Reaction Biology Europe
T5 sequence (Q96PF2 1-358): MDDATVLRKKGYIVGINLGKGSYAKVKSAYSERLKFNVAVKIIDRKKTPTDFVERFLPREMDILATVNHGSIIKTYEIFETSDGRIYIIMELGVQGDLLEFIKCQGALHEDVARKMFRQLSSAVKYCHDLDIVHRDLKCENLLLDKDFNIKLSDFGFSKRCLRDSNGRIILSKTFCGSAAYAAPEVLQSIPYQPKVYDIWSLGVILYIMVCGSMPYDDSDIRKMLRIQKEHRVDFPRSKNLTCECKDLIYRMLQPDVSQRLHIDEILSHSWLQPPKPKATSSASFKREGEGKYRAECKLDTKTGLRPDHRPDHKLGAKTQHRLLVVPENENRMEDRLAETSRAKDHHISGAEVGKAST

The structures appear in SMILES notation. Read-outs that look alike come from different tables or passages of the source.

T2 sequence (Q13233 whole entry): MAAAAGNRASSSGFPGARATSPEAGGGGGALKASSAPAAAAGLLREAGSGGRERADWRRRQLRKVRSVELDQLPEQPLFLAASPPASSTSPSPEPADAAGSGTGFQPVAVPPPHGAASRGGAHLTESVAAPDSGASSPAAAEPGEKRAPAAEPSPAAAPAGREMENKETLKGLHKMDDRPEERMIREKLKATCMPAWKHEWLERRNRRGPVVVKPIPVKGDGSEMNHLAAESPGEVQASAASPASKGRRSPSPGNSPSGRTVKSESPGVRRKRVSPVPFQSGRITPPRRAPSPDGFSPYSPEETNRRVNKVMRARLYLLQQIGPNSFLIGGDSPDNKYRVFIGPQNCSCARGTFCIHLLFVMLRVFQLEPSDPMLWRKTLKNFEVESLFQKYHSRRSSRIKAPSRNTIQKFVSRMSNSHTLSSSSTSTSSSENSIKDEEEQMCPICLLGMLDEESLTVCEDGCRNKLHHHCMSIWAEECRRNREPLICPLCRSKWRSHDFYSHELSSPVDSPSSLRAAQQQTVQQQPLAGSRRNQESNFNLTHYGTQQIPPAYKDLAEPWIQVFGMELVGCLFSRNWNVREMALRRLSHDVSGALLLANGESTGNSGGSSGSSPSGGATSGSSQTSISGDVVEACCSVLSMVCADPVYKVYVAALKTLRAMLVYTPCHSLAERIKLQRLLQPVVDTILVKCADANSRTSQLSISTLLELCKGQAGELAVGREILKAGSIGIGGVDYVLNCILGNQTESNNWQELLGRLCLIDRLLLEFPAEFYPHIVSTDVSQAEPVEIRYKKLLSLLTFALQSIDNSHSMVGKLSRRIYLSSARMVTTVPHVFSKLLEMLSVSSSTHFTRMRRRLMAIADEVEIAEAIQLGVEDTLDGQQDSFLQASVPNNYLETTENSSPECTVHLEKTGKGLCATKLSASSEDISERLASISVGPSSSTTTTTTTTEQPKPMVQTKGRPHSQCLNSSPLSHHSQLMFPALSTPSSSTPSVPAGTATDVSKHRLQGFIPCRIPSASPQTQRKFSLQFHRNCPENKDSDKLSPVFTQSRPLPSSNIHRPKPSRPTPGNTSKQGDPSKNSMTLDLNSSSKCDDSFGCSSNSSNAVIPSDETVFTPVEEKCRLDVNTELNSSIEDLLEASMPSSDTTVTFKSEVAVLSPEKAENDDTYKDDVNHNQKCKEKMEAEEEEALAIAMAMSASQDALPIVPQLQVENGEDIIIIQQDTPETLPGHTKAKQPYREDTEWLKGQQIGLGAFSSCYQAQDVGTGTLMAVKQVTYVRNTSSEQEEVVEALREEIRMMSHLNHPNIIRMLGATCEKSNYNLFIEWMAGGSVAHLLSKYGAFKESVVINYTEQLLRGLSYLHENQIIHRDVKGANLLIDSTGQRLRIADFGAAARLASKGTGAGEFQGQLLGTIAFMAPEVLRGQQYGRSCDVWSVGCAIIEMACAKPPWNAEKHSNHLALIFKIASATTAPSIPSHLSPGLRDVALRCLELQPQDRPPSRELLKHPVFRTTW
T3 sequence (Q99558 whole entry): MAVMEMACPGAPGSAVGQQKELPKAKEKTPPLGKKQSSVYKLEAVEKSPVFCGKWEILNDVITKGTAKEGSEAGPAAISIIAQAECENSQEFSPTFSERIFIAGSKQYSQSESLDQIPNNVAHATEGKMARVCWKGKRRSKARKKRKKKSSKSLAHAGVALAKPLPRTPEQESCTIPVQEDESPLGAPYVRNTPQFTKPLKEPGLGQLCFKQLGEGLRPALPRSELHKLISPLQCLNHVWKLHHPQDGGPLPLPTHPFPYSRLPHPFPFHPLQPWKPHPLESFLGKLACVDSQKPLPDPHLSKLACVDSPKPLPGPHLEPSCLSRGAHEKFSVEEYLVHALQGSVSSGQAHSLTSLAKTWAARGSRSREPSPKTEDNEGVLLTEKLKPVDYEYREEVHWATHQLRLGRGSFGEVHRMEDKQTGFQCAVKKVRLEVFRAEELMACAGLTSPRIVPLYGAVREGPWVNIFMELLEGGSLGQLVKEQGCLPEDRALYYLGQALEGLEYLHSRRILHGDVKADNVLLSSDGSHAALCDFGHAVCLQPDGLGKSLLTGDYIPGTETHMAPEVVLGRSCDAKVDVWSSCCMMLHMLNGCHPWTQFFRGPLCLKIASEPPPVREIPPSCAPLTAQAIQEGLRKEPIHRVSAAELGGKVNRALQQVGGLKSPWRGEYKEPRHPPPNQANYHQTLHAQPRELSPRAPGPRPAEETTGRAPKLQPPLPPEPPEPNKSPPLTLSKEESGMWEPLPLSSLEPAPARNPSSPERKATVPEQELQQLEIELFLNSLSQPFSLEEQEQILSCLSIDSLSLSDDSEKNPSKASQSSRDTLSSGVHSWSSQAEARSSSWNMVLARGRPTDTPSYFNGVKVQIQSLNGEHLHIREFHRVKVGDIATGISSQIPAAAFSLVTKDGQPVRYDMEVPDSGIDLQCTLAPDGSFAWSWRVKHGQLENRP

With `CNC(=O)c1ccc2c(c1)C(=O)c1ccc(Nc3ccc(F)c(NC(=O)C4CC4)c3)cc1CC2` [Compound 2015], the remaining activity at 0.2 µM is 99.5% at 340 wild-type kinases [1] (0.2 µM 2015, read-out: BRSK1 residual activity); 99.5% at 340 wild-type kinases [1] (BRSK1, 0.2 µM, read-out: residual activity); 104% at 340 wild-type kinases [2] (0.2 µM 2015, read-out: MAP3K1 residual activity); 104% on 340 wild-type kinases [2] (MAP3K1, 0.2 µM, read-out: residual activity); 113% on 340 wild-type kinases [3] (0.2 µM 2015, read-out: NIK residual activity); 113% on 340 wild-type kinases [3] (NIK, 0.2 µM, read-out: residual activity). The remaining activity at 0.2 µM on 340 wild-type kinases [4] (0.2 µM 2015, read-out: MATK residual activity) turned out to be 112%; on 340 wild-type kinases [4] (MATK, 0.2 µM, read-out: residual activity) it was 112%; at 340 wild-type kinases [5] (0.2 µM 2015, read-out: TSK2 residual activity), 104%; on 340 wild-type kinases [5] (TSK2, 0.2 µM, read-out: residual activity) it was 104%. Moreover, the remaining activity at 1 µM at 340 wild-type kinases [1] (1 µM 2015, read-out: BRSK1 residual activity) came to 90.5%; on 340 wild-type kinases [1] (BRSK1, 1 µM, read-out: residual activity), 90.5%; on 340 wild-type kinases [2] (1 µM 2015, read-out: MAP3K1 residual activity) it was 102%; at 340 wild-type kinases [2] (MAP3K1, 1 µM, read-out: residual activity), 102%; at 340 wild-type kinases [3] (1 µM 2015, read-out: NIK residual activity) it was 90.5%; at 340 wild-type kinases [3] (NIK, 1 µM, read-out: residual activity) it was 90.5%. Besides, the remaining activity at 1 µM on 340 wild-type kinases [4] (1 µM 2015, read-out: MATK residual activity) turned out to be 100%; at 340 wild-type kinases [4] (MATK, 1 µM, read-out: residual activity), 100%; at 340 wild-type kinases [5] (1 µM 2015, read-out: TSK2 residual activity), 106%; on 340 wild-type kinases [5] (TSK2, 1 µM, read-out: residual activity), 106%.

The values are drawn from PMC11864979, “First-in-class ultralong-target-residence-time p38α inhibitors as a mitosis-targeted therapy for colorectal cancer” (Nature Cancer, 2025).
